Reference: patent publication US20250215010A1, “DIAZABICYCLOOCTANE DERIVATIVES USEFUL AS MATRIX METALLOPROTEINASE INHIBITORS” (VASA THERAPEUTICS SPOLKA Z OGRANICZONA ODPOWIEDZIALNOSCIA, priority 2022, published 2025)

Experiments:
Format in all cases: biochemical
MMP1 = target: T1, MMP1 (Homo sapiens, UniProt P03956); assay: MMP-1 colorimetric inhibition assay (Enzo kit BML-AK404); details: thiopeptide substrate, absorbance 415 nm; read-out: MMP 1 IC50 class
T1 sequence (P03956 100-269 limits assumed): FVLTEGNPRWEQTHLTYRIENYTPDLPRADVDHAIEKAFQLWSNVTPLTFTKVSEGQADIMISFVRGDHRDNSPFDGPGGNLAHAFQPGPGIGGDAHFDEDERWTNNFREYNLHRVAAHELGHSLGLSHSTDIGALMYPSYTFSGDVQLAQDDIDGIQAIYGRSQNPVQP
Experimental: (§1) The inhibitory activities of the compounds of the invention were assessed in 96-well microplate format using MMP1, MMP2, MMP9 and MMP13 colorimetric assay kits and TACE fluorometric assay kit from Enzo Life Sciences, Inc. The inhibitory effect of the compounds of the invention on ADAM10 activity were evaluated in 96-well microplate format using fluorometric assay from AnaSpec, Inc.
(§2) The MMP-1 Colorimetric Drug Discovery Kit (catalog #BML-AK404) is a complete assay system designed to screen inhibitors of matrix metalloproteinase-1 using a thiopeptide as a chromogenic substrate (Ac-PLG-[2-mercapto-4-methylpentanoyl]-LG-OC2H5). The MMP cleavage site peptide bond is replaced by a thioester bond in the thiopeptide. Hydrolysis of this bond by an MMP produces a sulfhydryl group, which reacts with DTNB [5,5′-dithiobis(2-nitrobenzoic acid), Ellman's reagent] to form 2-nitro-5-thiobenzoic acid, that can be detected spectrophotometrically.
(§3) The inhibitory activities of the compounds of the invention against MMP1, MMP2, MMP9 and MMP13 were tested according to the manufacturer's assay protocols and the absorbance at 415 nm was monitored using the Tecan Infinite® 200 Pro F Nano^+ microplate reader.
(§4) The normalized values were analyzed using GraphPadPrism 9 for Windows (GraphPad Software, San Diego, CA, USA) software by plotting inhibition curves and determining the IC50 values (in nM).

ADAM17 (TACE) = ADAM17 (TACE) (Homo sapiens, UniProt P78536); assay: TACE fluorometric inhibition assay (Enzo kit BML-AK310); details: quenched fluorogenic peptide, ex/em 320/420 nm; read-out: TACE IC50 class
ADAM17 (TACE), sequence (P78536 215-477 limits assumed): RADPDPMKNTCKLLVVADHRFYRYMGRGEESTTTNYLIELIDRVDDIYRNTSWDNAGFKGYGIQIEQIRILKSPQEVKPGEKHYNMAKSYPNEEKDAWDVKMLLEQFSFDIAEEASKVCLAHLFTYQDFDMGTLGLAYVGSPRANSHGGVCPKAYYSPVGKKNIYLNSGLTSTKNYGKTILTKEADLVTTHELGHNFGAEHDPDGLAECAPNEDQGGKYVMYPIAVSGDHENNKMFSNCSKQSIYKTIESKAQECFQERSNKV
Experimental: as §1
The TACE Fluorometric Drug Discovery Kit (catalog #BML-AK310) is a complete assay system designed to screen ADAM17 (TACE) inhibitors using a quenched fluorogenic peptide: Mca-PLAQAV-Dpa-RSSSR—NH2. Mca fluorescence is quenched by the Dpa group until cleavage by proteases separates the two moieties leading to an increase in Mca fluorescence.
The inhibitory activity of the compounds of the invention against TACE was tested according to the manufacturer's assay protocol and the fluorescence was monitored at excitation/emission wavelengths=320 nm/420 nm using Tecan Infinite® 200 Pro F Nano^+ microplate reader.
as §4

MMP9 = MMP9 (Homo sapiens, UniProt P14780); assay: MMP-9 colorimetric inhibition assay (Enzo kit BML-AK410); details: thiopeptide substrate, absorbance 415 nm; read-out: MMP 9 IC50 class
MMP9, sequence (P14780 94-707): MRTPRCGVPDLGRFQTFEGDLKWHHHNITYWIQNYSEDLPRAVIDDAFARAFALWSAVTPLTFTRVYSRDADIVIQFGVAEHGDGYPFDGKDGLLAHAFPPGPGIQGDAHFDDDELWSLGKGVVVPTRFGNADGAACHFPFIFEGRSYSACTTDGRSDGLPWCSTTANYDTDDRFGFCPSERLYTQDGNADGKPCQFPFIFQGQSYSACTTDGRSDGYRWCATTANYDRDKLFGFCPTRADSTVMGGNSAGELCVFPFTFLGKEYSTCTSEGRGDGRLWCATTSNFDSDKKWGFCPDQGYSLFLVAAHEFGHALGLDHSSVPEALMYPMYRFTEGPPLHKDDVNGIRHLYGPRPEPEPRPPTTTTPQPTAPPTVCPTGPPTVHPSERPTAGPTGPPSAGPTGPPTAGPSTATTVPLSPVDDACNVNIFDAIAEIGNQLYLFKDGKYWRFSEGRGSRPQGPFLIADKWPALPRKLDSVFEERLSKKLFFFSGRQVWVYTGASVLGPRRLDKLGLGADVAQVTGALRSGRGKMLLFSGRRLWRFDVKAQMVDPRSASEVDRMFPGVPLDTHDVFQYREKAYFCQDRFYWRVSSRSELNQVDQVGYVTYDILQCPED
Experimental: as §1
as §2, with “MMP-9” for “MMP-1”, “#BML-AK410)” for “#BML-AK404)”, “metalloproteinase-9” for “metalloproteinase-1”
as §3, §4

MMP2 = target: T2, MMP2 (Homo sapiens, UniProt P08253); assay: MMP-2 colorimetric inhibition assay (Enzo kit BML-AK408); details: thiopeptide substrate, absorbance 415 nm; read-out: MMP 2 IC50 class
T2 sequence (P08253 110-660): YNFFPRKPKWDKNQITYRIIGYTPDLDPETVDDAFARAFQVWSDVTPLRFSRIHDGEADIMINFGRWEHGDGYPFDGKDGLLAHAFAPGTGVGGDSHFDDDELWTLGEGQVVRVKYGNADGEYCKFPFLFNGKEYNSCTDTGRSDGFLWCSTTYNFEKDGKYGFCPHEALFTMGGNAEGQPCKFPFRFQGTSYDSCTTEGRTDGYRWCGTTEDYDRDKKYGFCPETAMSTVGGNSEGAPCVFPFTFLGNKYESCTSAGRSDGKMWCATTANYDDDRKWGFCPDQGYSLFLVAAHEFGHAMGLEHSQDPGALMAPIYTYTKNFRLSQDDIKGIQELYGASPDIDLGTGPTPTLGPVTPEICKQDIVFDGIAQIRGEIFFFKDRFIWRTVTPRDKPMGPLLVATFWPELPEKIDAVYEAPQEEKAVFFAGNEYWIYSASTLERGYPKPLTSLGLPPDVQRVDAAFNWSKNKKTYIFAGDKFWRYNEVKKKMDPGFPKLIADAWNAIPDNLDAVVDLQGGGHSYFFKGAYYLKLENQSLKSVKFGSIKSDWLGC
Experimental: as §1
as §2, with “MMP-2” for “MMP-1”, “#BML-AK408)” for “#BML-AK404)”, “screen MMP-2” for “screen”, “inhibitors” for “inhibitors of matrix metalloproteinase-1”
as §3, §4

MMP13 = target: T3, MMP13 (Homo sapiens, UniProt P45452); assay: MMP-13 colorimetric inhibition assay (Enzo kit BML-AK412); details: thiopeptide substrate, absorbance 415 nm; read-out: MMP 13 IC50 class
T3 construct: purchased Enzo Life Sciences, Inc. BML-AK412
Experimental: as §1
as §2, with “MMP-13” for “MMP-1”, “#BML-AK412)” for “#BML-AK404)”, “metalloproteinase-13” for “metalloproteinase-1”
as §3, §4

Row | Structure (SMILES) | IC50 (MMP1) [nM] | IC50 (ADAM17 (TACE)) [nM] | IC50 (MMP9) [nM] | IC50 (MMP2) [nM] | IC50 (MMP13) [nM]
1 | CCOC(=O)N1[C@@H]2CC[C@H]1[C@H](C(=O)NO)N(S(=O)(=O)N1CCC(Oc3ccnc(C(F)(F)F)c3)CC1)C2 [Example 50, ethyl (1S,2R,5R)-2-(hydroxy-carbamoyl)-3-((4-((2-(trifluoro-methyl)pyridin-4-yl)oxy)-piperidin-1-yl)-sulfonyl)-3,8-diazabicyclo-[3.2.1]octane-8-carboxylate] | > 10000 | 1000 to 10000 | 50 to 1000 | 50 to 1000 | 50 to 1000
2 | CN(C)C(=O)CN1[C@@H]2CC[C@H]1[C@H](C(=O)NO)N(S(=O)(=O)c1ccc(Oc3ccc(F)cc3)nc1)C2 [Example 51, (1S,2R,5R)-8-(2-(dimethylamino)-2-oxoethyl)-3-((6-(4-fluorophenoxy)pyridin-3-yl)sulfonyl)-N-hydroxy-3,8-diazabicyclo[3.2.1]octane-2-carboxamide] | 1000 to 10000 | > 10000 | 50 to 1000 | < 50 | < 50
3 | O=C(NO)[C@H]1[C@@H]2CC[C@H](CN1S(=O)(=O)c1ccc(Oc3ccc(F)cc3)nc1)N2CC(=O)N1CCCC1 [Example 52, (1S,2R,5R)-3-((6-(4-fluorophenoxy)pyridin-3-yl)sulfonyl)-N-hydroxy-8-(2-oxo-2-(pyrrolidin-1-yl)ethyl)-3,8-diazabicyclo[3.2.1]octane-2-carboxamide] | 1000 to 10000 | > 10000 | 50 to 1000 | < 50 | < 50
4 | CC(C)Oc1ccc(Oc2ccc(S(=O)(=O)N3C[C@H]4CC[C@@H]([C@@H]3C(=O)NO)N4C(=O)C(C)C)cn2)cc1 [Example 60, (1S,2R,5R)-N-hydroxy-8-isobutyry1-3-((6-(4-isopropoxy-phenoxy)pyridin-3-yl)sulfonyl)-3,8-diazabicyclo-[3.2.1]octane-2-carboxamide] | 1000 to 10000 | > 10000 | < 50 | < 50 | < 50
5 | CC(C)Oc1ccc(Oc2ccc(S(=O)(=O)N3C[C@H]4CC[C@@H]([C@@H]3C(=O)NO)N4C(=O)C(C)(C)C)cn2)cc1 [Example 61, (1S,2R,5R)-N-hydroxy-3-((6-(4-isopropoxyphenoxy)-pyridin-3-yl)-sulfonyl)-8-pivaloyl-3,8-diazabicyclo-[3.2.1]octane-2-carboxamide] | 1000 to 10000 | > 10000 | 50 to 1000 | < 50 | < 50
6 | CC(=O)N1[C@@H]2CC[C@H]1[C@H](C(=O)NO)N(S(=O)(=O)N1CCC(Oc3ccnc(C(F)(F)F)c3)CC1)C2 [Example 64, (1S,2R,5R)-8-acetyl-N-hydroxy-3-((4-((2-(trifluoromethyl)-pyridin-4-yl)oxy)-piperidin-1-yl)-sulfonyl)-3,8-diazabicyclo[3.2.1]-octane-2-carboxamide] | 1000 to 10000 | 1000 to 10000 | 50 to 1000 | 50 to 1000 | 50 to 1000
7 | O=C(NO)[C@H]1[C@@H]2CC[C@H](CN1S(=O)(=O)c1ccc(Oc3ccc(F)cc3)nc1)N2C(=O)N1CCOCC1 [Example 68, (1S,2R,5R)-3-((6-(4-fluorophenoxy)pyridin-3-yl)sulfonyl)-N-hydroxy-8-(morpholine-4-carbonyl)-3,8-diazabicyclo[3.2.1]octane-2-carboxamide] | 1000 to 10000 | 1000 to 10000 | 50 to 1000 | < 50 | < 50
8 | CN1CCN(C(=O)N2[C@@H]3CC[C@H]2[C@H](C(=O)NO)N(S(=O)(=O)c2ccc(Oc4ccc(F)cc4)nc2)C3)CC1 [Example 69, (1S,2R,5R)-3-((6-(4-fluorophenoxy)pyridin-3-yl)sulfonyl)-N-hydroxy-8-(4-methyl-piperazine-1-carbonyl)-3,8-diazabicyclo-[3.2.1]octane-2-carboxamide] | 1000 to 10000 | 1000 to 10000 | 50 to 1000 | < 50 | 50 to 1000
9 | CC(C)Oc1ccc(Oc2ccc(S(=O)(=O)N3C[C@H]4CC[C@@H]([C@@H]3C(=O)NO)N4C(=O)N3CCOCC3)cn2)cc1 [Example 71, (1S,2R,5R)-N-hydroxy-3-((6-(4-isopropoxyphenoxy)-pyridin-3-yl)sulfonyl)-8-(morpholine-4-carbonyl)-3,8-diazabicyclo[3.2.1]-octane-2-carboxamide] | 1000 to 10000 | > 10000 | 50 to 1000 | < 50 | < 50
10 | CCN1CCC(Oc2ccc(S(=O)(=O)N3C[C@H]4CC[C@@H]([C@@H]3C(=O)NO)N4C(=O)OCCOC)cn2)CC1 [Example 74, 2-methoxyethyl (1S,2R,5R)-3-((6-((1-ethylpiperidin-4-yl)oxy)pyridin-3-yl)sulfonyl)-2-(hydroxycarbamoyl)-3,8-diazabicyclo[3.2.1]octane-8-carboxylate] | > 10000 | > 10000 | 1000 to 10000 | > 10000 | > 10000
11 | COCCOC(=O)N1[C@@H]2CC[C@H]1[C@H](C(=O)NO)N(S(=O)(=O)c1ccc(OC3CCN(C(C)C)CC3)nc1)C2 [Example 75, 2-methoxyethyl (1S,2R,5R)-2-(hydroxycarbamoyl)-3-((6-((1-isopropyl-piperidin-4-yl)oxy)-pyridin-3-yl)-sulfonyl)-3,8-diaza-bicyclo[3.2.1]octane-8-carboxylate] | 1000 to 10000 | 1000 to 10000 | 50 to 1000 | 50 to 1000 | 50 to 1000
12 | COCCOC(=O)N1[C@@H]2CC[C@H]1[C@H](C(=O)NO)N(S(=O)(=O)N1CCN(Cc3ccc(Cl)cc3)CC1)C2 [Example 76, 2-methoxyethyl (1S,2R,5R)-3-((4-(4-chlorobenzyl)piperazin-1-yl)sulfonyl)-2-(hydroxycarbamoyl)-3,8-diazabicyclo[3.2.1]octane-8-carboxylate] | > 10000 | 1000 to 10000 | 50 to 1000 | 50 to 1000 | 50 to 1000
